Results as given in ChEMBL document CHEMBL4000169, “Overexpression of the Global Regulator LaeA in Chaetomium globosum Leads to the Biosynthesis of Chaetoglobosin Z” (J Nat Prod, 2016).
pIC50: −log10 of the molar value.

Test system: HepG2
Assay: Cytotoxicity against human HepG2 cells by MTT assay
Type: functional, cell-based

Structure (SMILES)	pIC50
CC1=C(C)[C@H]2[C@H](Cc3c[nH]c4ccccc34)NC(=O)[C@]23C(=O)CCC(=O)[C@H](O)/C(C)=C/[C@@H](C)C/C=C/[C@H]3[C@@H]1O	5.07
C/C1=C\[C@@H](C)C/C=C/[C@H]2C(=O)[C@@H](C)[C@@H](C)[C@H]3[C@H](Cc4c[nH]c5ccccc45)NC(=O)[C@]32C(=O)/C=C/C(=O)[C@@H]1O	5.54
CC1=C(O)C(=O)[C@H]2CC(=O)[C@@]34C(=O)N[C@@H](Cc5c[nH]c6ccccc56)[C@@H]3C(C)=C(C)[C@@H](O)[C@@H]4/C=C/C[C@H](C)[C@H]12	4.89
C/C1=C\[C@@H](C)C/C=C/[C@H]2[C@@H]3O[C@]3(C)[C@@H](C)[C@H]3[C@H](Cc4c[nH]c5ccccc45)NC(=O)[C@]32C(=O)/C=C/C(=O)[C@@H]1O [CHAETOGLOBOSIN A]	5.20
CC1=C(C)[C@H]2[C@H](Cc3c[nH]c4ccccc34)NC(=O)[C@]23C(=O)CC[C@H](O)C(=O)/C(C)=C/[C@@H](C)C/C=C/[C@H]3[C@@H]1O [CHAETOGLOBOSIN E]	5.44
CC1=C(C)[C@H]2[C@H](Cc3c[nH]c4ccccc34)NC(=O)[C@]23C(=O)/C=C/C(=O)[C@H](O)/C(C)=C/[C@@H](C)C/C=C/[C@H]3[C@@H]1O [CHEATOGLOBOSIN B]	5.28
COc1cc([C@@H]2c3cc4c(cc3[C@@H](O[C@@H]3O[C@@H]5CO[C@@H](C)O[C@H]5[C@H](O)[C@H]3O)[C@H]3COC(=O)[C@H]23)OCO4)cc(OC)c1O [ETOPOSIDE]	4.80
